The values that follow come from US9193728B2, “Fused tetracyclic pyrido [4,3-B] indole and pyrido [3,4-B] indole derivatives and methods of use” (Medivation Technologies, Inc., priority 2010, dated 2015).

Series [1] has as its target T1, human recombinant histamine H1 receptor (Homo sapiens, UniProt P35367).
T1 construct: expressed in transfected cells; host or cells: CHO-K1
The series can be described thus: Histamine H1 radioligand binding ([3H]Pyrilamine). The note with it: compound at 1 μM; 1.2 nM [3H]Pyrilamine; read-out: Histamine Binding (1 μM) H1, percentage inhibition. The protocol: To evaluate in radioligand binding assays the activity of compounds of the invention, human recombinant histamine H1 receptor expressed in Chinese hamster ovary (CHO) K1 cells (De Backer, M. et al, Biochem. Biophys. Res. Comm. 197(3):1601, 1993) in a modified Tris-HCl buffer (50 mM Tris-HCl, pH 7.4, 2 mM MgCl2, 100 mM NaCl, 250 mM Sucrose) was used. Compounds of the invention were incubated with 1.2 nM [^3H]Pyrilamine for 180 min. at 25° C. Non-specific binding was estimated in the presence of 1 μM Pyrilamine. Receptor proteins were filtered and washed, the filters were then counted to determine [^3H]Pyrilamine specifically bound. Compounds were screened at 1 μM or lower, using 1% DMSO as vehicle. Biochemical assay results are presented as the percent inhibition of specific binding in Table 2.

Series [2] has as its target T2, human recombinant histamine H2 receptor (Homo sapiens, UniProt P25021).
T2 construct: expressed in transfected cells; host or cells: CHO-K1
The series can be described thus: Histamine H2 radioligand binding ([125I]Aminopotentidine). The note with it: compound at 1 μM; 0.1 nM [125I]Aminopotentidine; read-out: Histamine Binding (1 μM) H2, percentage inhibition. The protocol: To evaluate in radioligand binding assays the activity of compounds of the invention, human recombinant histamine H2 receptor expressed in Chinese hamster ovary (CHO) K1 cells (Ruat, M., Proc. Natl. Acad. Sci. USA. 87(5):1658, 1990) in a 50 mM Phosphate buffer, pH 7.4 was used. Compounds of the invention were incubated with 0.1 nM [^125I]Aminopotentidine for 120 min. at 25° C. Non-specific binding was estimated in the presence of 3 μM Tiotidine. Receptor proteins were filtered and washed, the filters were then counted to determine [^125I]Aminopotentidine specifically bound. Compounds were screened at 1 μM or lower, using 1% DMSO as vehicle. Biochemical assay results are presented as the percent inhibition of specific binding in Table 2.

Series [3] concerns the target T3, human recombinant dopamine D2L receptor (Homo sapiens, UniProt P14416).
T3 construct: expressed in transfected cells; host or cells: CHO
The series is described as follows: Dopamine D2L radioligand binding ([3H]Spiperone). The note with it: compound at 1 μM; read-out: Dopamine (1 μM) D2L, percentage inhibition of ligand binding. As for the experimental part: To evaluate in radioligand binding assays the activity of compounds of the invention, human recombinant dopamine D2L receptor expressed in Chinese hamster ovary (CHO) cells (Grandy, D. et al, Proc. Natl. Acad. Sci. USA. 86:9762, 1989; Hayes, G. et al, Mol. Endocrinol. 6:920, 1992) in a modified Tris-HCl buffer (50 mM Tris-HCl, pH 7.4, 1.4 mM Ascorbic Acid, 0.001% BSA, 150 mM NaCl) was used. Compounds of the invention were incubated with 0.16 nM [^3H]Spiperone for 120 min. at 25° C. Non-specific binding was estimated in the presence of 10 μM Haloperidol. Receptor proteins were filtered and washed, the filters were then counted to determine [^3H]Spiperone specifically bound. Compounds were screened at 1 μM or lower, using 1% DMSO as vehicle. Biochemical assay results are presented as the percent inhibition of specific binding in Table 3.

Series [4] addresses T4, human recombinant serotonin (5-Hydroxytryptamine) 5-HT2A receptor (Homo sapiens, UniProt P28223).
T4 construct: expressed in transfected cells; host or cells: CHO-K1
The series can be described thus: Serotonin 5-HT2A radioligand binding ([3H]Ketanserin). The note with it: for inhibition at 1 µM: compound at 1 μM, read-out: Serotonin (1 μM) 5-HT2A, percentage inhibition of ligand binding; for inhibition at 0.1 µM: compound at 0.1 μM, read-out: Serotonin (0.1 μM) 5-HT2A, percentage inhibition of ligand binding. The protocol: To evaluate in radioligand binding assays the activity of compounds of the invention, human recombinant serotonin (5-Hydroxytryptamine) 5-HT2A receptor expressed in Chinese hamster ovary (CHO)-K1 cells (Bonhaus, D. et al, Br. J. Pharmacol. 115:622, 1995; Saucier, C. et al, J. Neurochem. 68:1998, 1997) in a 50 mM Tris-HCl buffer, pH 7.4, was used. Compounds of the invention were incubated with 0.5 nM [^3H]Ketanserin for 60 min. at 25° C. Non-specific binding was estimated in the presence of 1 μM Mianserin. Receptor proteins were filtered and washed, the filters were then counted to determine [^3H]Ketanserin specifically bound. Compounds were screened at 1 μM or lower, using 1% DMSO as vehicle. Biochemical assay results are presented as the percent inhibition of specific binding in Table 4.

In series [5] the target is T5, human recombinant serotonin (5-Hydroxytryptamine) 5-HT2C receptor (Homo sapiens, UniProt P28335).
T5 construct: expressed in transfected cells; host or cells: CHO-K1
T5 sequence (P28335 33-458): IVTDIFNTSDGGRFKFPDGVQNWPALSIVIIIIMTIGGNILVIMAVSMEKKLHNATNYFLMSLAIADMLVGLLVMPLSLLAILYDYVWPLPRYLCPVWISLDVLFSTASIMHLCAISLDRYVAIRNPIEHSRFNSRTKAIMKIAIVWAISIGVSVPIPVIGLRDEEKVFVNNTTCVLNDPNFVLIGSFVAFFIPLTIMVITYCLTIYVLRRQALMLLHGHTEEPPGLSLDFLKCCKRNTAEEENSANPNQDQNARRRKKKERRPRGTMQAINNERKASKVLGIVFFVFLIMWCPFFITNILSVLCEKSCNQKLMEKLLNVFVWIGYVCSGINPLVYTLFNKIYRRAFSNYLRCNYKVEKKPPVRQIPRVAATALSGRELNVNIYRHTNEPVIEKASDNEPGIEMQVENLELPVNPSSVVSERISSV
The series is described as follows: Serotonin 5-HT2C radioligand binding ([3H]Mesulergine). The note with it: for inhibition at 1 µM: compound at 1 μM, read-out: Serotonin (1 μM) 5-HT2C, percentage inhibition of ligand binding; for inhibition at 0.1 µM: compound at 0.1 μM, read-out: Serotonin (0.1 μM) 5-HT2C, percentage inhibition of ligand binding. As for the experimental part:
To evaluate in radioligand binding assays the activity of compounds of the invention, human recombinant serotonin (5-Hydroxytryptamine) 5-HT2C receptor expressed in Chinese hamster ovary (CHO)-K1 cells (Wolf, W. et al, J. Neurochem. 69:1449, 1997) in a modified Tris-HCl buffer (50 mM Tris-HCl, pH 7.4, 0.1% Ascorbic Acid, 10 μM Pargyline) was used. Compounds of the invention were incubated with 1 nM [^3H]Mesulergine for 60 min. at 25° C. Non-specific binding was estimated in the presence of 1 μM Mianserin. Receptor proteins were filtered and washed, the filters were then counted to determine [^3H]Mesulergine specifically bound. Compounds were screened at 1 μM or lower, using 1% DMSO as vehicle. Biochemical assay results are presented as the percent inhibition of specific binding in Table 4.

For series [6], the target named is T6, human recombinant serotonin (5-Hydroxytryptamine) 5-HT6 receptor (Homo sapiens, UniProt P50406).
T6 construct: expressed in transfected cells; host or cells: HeLa
The series is described as follows: Serotonin 5-HT6 radioligand binding ([3H]LSD). Conditions: for inhibition at 1 µM: compound at 1 μM, read-out: Serotonin (1 μM) 5-HT6, percentage inhibition of ligand binding; for inhibition at 0.1 µM: compound at 0.1 μM, read-out: Serotonin (0.1 μM) 5-HT6, percentage inhibition of ligand binding. As for the experimental part: To evaluate in radioligand binding assays the activity of compounds of the invention, human recombinant serotonin (5-Hydroxytryptamine) 5-HT6 receptor expressed in human HeLa cells (Monsma, F. Jr. et al, Mol. Pharmacol. 43:320, 1993) in a modified Tris-HCl buffer (50 mM Tris-HCl, pH 7.4, 150 mM NaCl, 2 mM Ascorbic Acid, 0.001% BSA) was used. Compounds of the invention were incubated with 1.5 nM [3H]Lysergic acid diethylamide (LSD) for 120 min. at 37° C. Non-specific binding was estimated in the presence of 5 μM Serotonin (5-HT). Receptor proteins were filtered and washed, the filters were then counted to determine [3H]LSD specifically bound. Compounds were screened at 1 μM or lower, using 1% DMSO as vehicle. Biochemical assay results are presented as the percent inhibition of specific binding in Table 4.

The target in series [7] is T7, human recombinant serotonin (5-Hydroxytryptamine) 5-HT7 receptor (Homo sapiens, UniProt P34969).
T7 construct: expressed in transfected cells; host or cells: CHO
The series is described as follows: Serotonin 5-HT7 radioligand binding ([3H]LSD). Conditions: for inhibition at 1 µM: compound at 1 μM, read-out: Serotonin (1 μM) 5-HT7, percentage inhibition of ligand binding; for inhibition at 0.1 µM: compound at 0.1 μM, read-out: Serotonin (0.1 μM) 5-HT7, percentage inhibition of ligand binding. As for the experimental part:
To evaluate in radioligand binding assays the activity of compounds of the invention, human recombinant serotonin (5-Hydroxytryptamine) 5-HT7 receptor expressed in Chinese hamster ovary (CHO) cells (Roth, B. et al, J. Pharmacol. Exp. Ther. 268:1403, 1994; Shen, Y. et al, J. Biol. Chem. 268:18200, 1993) in a modified Tris-HCl buffer (50 mM Tris-HCl, pH 7.4, 10 mM MgCl2, 0.5 mM EDTA) was used. Compounds of invention were incubated with 5.5 nM [^3H]Lysergic acid diethylamide (LSD) for 120 min. at 25° C. Non-specific binding was estimated in the presence of 10 μM Serotonin (5-HT). Receptor proteins were filtered and washed, the filters were then counted to determine [^3H]LSD specifically bound. Compounds were screened at 1 μM or lower, using 1% DMSO as vehicle. Biochemical assay results are presented as the percent inhibition of specific binding in Table 4.

The nature of series [8]: Stability of product in acidic medium (note in preparation). In kind it is physicochemical.

T6 sequence (P50406 whole entry): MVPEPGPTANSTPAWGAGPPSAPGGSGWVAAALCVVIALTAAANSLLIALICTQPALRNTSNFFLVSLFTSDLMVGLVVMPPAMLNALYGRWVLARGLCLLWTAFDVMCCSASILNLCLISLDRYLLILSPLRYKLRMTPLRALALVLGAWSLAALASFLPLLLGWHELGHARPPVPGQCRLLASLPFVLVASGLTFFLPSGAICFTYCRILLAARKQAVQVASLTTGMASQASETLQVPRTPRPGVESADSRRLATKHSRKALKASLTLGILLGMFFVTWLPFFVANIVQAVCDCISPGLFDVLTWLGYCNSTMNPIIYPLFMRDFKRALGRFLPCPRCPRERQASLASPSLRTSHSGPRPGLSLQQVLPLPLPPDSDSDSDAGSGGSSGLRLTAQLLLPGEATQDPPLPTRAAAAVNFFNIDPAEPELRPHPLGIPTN
T7 sequence (P34969 whole entry): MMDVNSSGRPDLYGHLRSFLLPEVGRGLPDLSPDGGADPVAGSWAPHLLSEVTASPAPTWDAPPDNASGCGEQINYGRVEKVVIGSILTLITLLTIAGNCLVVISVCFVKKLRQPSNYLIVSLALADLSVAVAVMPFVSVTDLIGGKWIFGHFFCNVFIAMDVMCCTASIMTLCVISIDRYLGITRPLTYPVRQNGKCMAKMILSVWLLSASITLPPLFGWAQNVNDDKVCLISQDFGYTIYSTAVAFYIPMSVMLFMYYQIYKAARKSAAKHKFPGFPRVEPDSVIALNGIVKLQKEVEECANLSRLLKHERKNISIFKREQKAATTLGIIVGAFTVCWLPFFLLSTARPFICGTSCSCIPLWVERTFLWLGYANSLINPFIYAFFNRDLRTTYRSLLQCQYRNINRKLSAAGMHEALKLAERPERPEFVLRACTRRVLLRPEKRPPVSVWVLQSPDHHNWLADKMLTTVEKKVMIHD
T2 sequence (P25021 whole entry): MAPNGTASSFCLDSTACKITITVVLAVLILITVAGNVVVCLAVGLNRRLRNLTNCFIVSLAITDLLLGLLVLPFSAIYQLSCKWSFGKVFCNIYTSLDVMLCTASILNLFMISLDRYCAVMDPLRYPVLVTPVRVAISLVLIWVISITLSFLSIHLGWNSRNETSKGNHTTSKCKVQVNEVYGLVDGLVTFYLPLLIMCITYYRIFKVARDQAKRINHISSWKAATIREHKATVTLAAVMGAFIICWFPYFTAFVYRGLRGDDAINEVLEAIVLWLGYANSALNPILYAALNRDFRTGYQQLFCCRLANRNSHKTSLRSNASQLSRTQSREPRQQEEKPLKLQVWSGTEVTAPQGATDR
T1 sequence (P35367 whole entry): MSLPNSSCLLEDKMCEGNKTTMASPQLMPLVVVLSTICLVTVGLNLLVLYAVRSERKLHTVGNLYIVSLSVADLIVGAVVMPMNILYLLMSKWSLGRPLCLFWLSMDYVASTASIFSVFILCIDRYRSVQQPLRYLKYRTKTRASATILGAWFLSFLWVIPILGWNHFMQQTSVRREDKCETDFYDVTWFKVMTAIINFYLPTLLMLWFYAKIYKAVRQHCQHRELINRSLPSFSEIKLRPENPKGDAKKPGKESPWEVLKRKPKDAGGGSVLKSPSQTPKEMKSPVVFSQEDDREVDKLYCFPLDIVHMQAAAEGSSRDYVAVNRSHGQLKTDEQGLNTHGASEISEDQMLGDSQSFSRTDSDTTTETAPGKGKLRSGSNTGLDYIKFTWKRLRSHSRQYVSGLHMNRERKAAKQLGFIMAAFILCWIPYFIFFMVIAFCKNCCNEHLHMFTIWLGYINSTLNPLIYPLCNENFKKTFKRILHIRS
T4 sequence (P28223 whole entry): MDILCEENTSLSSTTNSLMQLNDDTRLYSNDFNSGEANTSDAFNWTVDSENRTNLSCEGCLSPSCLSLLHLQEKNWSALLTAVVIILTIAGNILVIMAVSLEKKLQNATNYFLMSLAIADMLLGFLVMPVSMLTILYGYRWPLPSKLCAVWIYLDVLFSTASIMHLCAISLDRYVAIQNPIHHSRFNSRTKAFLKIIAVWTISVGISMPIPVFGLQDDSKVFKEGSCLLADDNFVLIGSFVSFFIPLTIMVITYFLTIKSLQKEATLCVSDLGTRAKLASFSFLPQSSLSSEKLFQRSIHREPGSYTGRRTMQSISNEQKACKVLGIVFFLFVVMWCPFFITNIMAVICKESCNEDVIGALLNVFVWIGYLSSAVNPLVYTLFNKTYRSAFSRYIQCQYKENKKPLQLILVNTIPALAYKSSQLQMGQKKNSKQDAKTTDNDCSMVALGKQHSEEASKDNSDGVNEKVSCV
T3 sequence (P14416 whole entry): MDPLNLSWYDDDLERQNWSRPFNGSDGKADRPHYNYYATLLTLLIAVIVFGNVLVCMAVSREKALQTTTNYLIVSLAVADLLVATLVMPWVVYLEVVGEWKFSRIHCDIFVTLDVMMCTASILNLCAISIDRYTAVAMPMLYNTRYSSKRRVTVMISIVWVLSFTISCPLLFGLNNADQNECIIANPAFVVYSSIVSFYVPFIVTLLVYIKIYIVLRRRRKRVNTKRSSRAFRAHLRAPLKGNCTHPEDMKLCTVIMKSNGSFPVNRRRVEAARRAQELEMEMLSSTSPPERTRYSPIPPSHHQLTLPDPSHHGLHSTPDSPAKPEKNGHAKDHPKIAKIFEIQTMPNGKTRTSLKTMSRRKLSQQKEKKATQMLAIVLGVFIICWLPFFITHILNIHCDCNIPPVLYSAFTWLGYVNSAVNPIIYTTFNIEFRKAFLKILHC

In the case of `Cc1cc2c3c(c1)c1c(n3CC2c2ccc(F)cc2)CCN(C)C1` (stereo not drawn) [Compound 2], the inhibition at 1 µM in series [1] was found to be 66%; in series [2], 48%; in series [3] it was 17%; in series [4] it was 87%; in series [5], 92%; in series [6], 57%. For the same molecule, the inhibition at 1 µM in series [7] came out at 89%.

Consider `Cc1cc2c3c(c1)c1c(n3CCO2)CCN(C)C1` [Compound 4, 5,8-dimethyl-1,2,7,8,9,10-hexahydro-[1,4]oxazino[2,3,4-hi]pyrido[4,3-b]indole], for which the inhibition at 1 µM in series [1] came to 53%; in series [2], 10%; in series [3], 6%; in series [4] it was 56%; in series [5] it was 79%; in series [6] it was 25%. Moreover, the inhibition at 1 µM in series [7] was determined as 46%.

Regarding `Cc1cc2c3c(c1)c1c(n3CC(c3ccc(F)cc3)=C2)CCN(C)C1` [Compound 158], the inhibition at 1 µM in series [1] worked out at 27%; in series [3], 99%. The inhibition at 0.1 µM in series [4] is 81%; in series [5], 55%; in series [6], 82%; in series [7], 36%. Further, the “stability in acidic medium” value in series [8] was “unstable in acidic medium”.

On to `Cc1cc2c3c(c1)c1c(n3CC(c3ccc(C)nc3)C2)CCN(C)C1` (stereo not drawn) [Compound 1], for which the inhibition at 1 µM in series [1] was 44%; in series [2], 42%; in series [3] it was -1%; in series [4], 20%; in series [5] it was 19%; in series [6], 24%.

On to `CN1CCc2c(c3cccc4c3n2CCO4)C1` [Compound 9, 8-methyl-1,2,7,8,9,10-hexahydro-[1,4]oxazino[2,3,4-hi]pyrido[4,3-b]indole], for which the inhibition at 1 µM in series [1] worked out at 31%; in series [3] it was 10%. Moreover, the inhibition at 0.1 µM in series [4] is 11%; in series [5], 20%; in series [6], 12%; in series [7], 2%.

Regarding `Cc1cc2c3c(c1)c1c(n3CC(c3ccc(F)cc3)=CC2)CCN(C)C1` [Compound 156, (Z)-6-(4-fluorophenyl)-2,11-dimethyl-4,7,9,10,11,12-hexahydroazepino[3,2,1-hi]pyrido[4,3-b]indole], the results for the inhibition at 1 µM in series [1] and in series [3] were 101% and 65%, respectively. For the same molecule, the inhibition at 0.1 µM in series [4] was 98%; in series [5], 93%; in series [6], 62%; in series [7] it was 49%.

On to `CN1CCc2c(c3cccc4c3n2CC(c2ccncc2)S4)C1` (stereo not drawn) [Compound 10], for which the inhibition at 1 µM is 84% in series [1] and 32% in series [3]. The inhibition at 0.1 µM in series [4] was 23%; in series [5] it was 8%; in series [6], 23%; in series [7] it was 12%.
